# Target: T1, C-C chemokine receptor type 1 (Homo sapiens, UniProt P32246)
# T1 sequence (P32246 whole entry): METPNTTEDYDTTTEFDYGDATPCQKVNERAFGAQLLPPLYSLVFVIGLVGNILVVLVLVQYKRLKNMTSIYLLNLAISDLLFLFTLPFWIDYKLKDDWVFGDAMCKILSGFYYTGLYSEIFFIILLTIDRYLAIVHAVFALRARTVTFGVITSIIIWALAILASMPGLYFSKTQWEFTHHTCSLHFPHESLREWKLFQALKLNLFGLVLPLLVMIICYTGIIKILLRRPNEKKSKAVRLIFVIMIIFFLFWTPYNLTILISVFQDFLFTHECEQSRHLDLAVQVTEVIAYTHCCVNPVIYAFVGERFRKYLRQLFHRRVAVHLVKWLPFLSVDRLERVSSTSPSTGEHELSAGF
# Assay: Compound was tested for inhibition of CCL3 binding to chemokine receptor-1; inactive at a concentration of 32 uM
row,Compound,IC50
1,CNC(=O)CC[C@H](O)[C@H](CC1CCCCC1)NC(=O)c1cnc2ccccc2c1,< 50 µM
2,CNC(=O)[C@@H](CC(C)C)C[C@@H](O)[C@H](CC1CCCCC1)NC(=O)c1cnc2ccccc2c1,< 50 µM
3,CC[C@H](C)[C@H](NC(=O)c1cnc2ccccc2c1)[C@@H](O)C[C@@H](CC(C)C)C(=O)NC,< 50 µM
4,CNC(=O)[C@H](CC(C)C)C[C@@H](O)[C@H](CC1CCCCC1)NC(=O)c1cnc2ccccc2c1,< 50 µM
5,CNC(=O)[C@H](CC(C)C)C[C@@H](O)[C@@H](CC1CCCCC1)NC(=O)c1cnc2ccccc2c1,< 50 µM
6,CNC(=O)[C@@H](CC(C)C)C[C@H](O)[C@@H](CC1CCCCC1)NC(=O)c1cnc2ccccc2c1,< 50 µM

# From BindingDB's records for doi:10.1016/j.bmcl.2004.02.020 (Pfizer, 2004)
